Source: patent US7569547B2, “Inhibiting furin with polybasic peptides” (Board of Supervisors of Louisiana State University and …, priority 2001, dated 2009)
Residues, ends and D or L forms follow the SMILES beside them. *: point of attachment. CH2Cl = ClC*

Tests used:
[1] = target: T1, PC2 (Mus musculus, UniProt P21661); assay: PC2 enzyme assay, hydrolysis of pERTKR-MCA at pH 5.0; type: biochemical; parameters: made in house
T1 sequence (P21661 109-637): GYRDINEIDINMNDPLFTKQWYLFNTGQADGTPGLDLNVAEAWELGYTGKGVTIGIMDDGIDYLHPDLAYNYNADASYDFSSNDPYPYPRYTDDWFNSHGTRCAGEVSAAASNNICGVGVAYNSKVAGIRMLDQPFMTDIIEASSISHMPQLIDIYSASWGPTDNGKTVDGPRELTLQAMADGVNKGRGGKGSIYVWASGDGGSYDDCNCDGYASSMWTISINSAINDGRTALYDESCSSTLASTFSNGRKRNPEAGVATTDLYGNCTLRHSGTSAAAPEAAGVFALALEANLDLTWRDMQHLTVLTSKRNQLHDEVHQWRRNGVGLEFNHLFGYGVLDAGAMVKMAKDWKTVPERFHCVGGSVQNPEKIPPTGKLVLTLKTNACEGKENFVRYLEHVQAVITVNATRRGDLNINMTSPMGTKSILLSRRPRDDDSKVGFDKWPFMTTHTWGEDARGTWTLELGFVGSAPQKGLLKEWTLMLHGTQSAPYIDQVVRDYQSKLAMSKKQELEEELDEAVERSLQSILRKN
Procedure: (§1) The proprotein convertases PC1 and PC2 were prepared by ion exchange chromatography as described in G. Frenette et al., Biochim. Biophys. Acta., vol. 1334, pp. 109-115 (1997).
(§2) Enzyme Assays and Hexapeptide Library Screening. Enzyme assays for PC1 and PC2 were performed at pH 5.0 using pERTKR-MCA (Peptides International Inc., Louisville, Ky.) as described in E. Apletalina et al., J. Biol. Chem., vol. 273, pp. 26589-26595 (1998). The assay for furin was performed using the same substrate at pH 7.0 in 100 mM HEPES, 5 mM CaCl2, 0.1% Brij 35. All assays were performed at 37° C. in a 96 well fluorometer (Labsystems) at an excitation wavelength of 380 nm with emission monitored at a wavelength of 460 nm. The total volume was 50 μL. Unless otherwise stated, the final substrate concentration for all assays was 200 μM. When used in a particular experiment, the inhibitory peptides were pre-incubated with enzyme for 30 min at room temperature prior to addition of substrate. All assays were performed in duplicate or triplicate.

[2] = target: T2, PC1 (Homo sapiens, UniProt P29120); settings: literature; cited from earlier work
T2 sequence (P29120 111-753): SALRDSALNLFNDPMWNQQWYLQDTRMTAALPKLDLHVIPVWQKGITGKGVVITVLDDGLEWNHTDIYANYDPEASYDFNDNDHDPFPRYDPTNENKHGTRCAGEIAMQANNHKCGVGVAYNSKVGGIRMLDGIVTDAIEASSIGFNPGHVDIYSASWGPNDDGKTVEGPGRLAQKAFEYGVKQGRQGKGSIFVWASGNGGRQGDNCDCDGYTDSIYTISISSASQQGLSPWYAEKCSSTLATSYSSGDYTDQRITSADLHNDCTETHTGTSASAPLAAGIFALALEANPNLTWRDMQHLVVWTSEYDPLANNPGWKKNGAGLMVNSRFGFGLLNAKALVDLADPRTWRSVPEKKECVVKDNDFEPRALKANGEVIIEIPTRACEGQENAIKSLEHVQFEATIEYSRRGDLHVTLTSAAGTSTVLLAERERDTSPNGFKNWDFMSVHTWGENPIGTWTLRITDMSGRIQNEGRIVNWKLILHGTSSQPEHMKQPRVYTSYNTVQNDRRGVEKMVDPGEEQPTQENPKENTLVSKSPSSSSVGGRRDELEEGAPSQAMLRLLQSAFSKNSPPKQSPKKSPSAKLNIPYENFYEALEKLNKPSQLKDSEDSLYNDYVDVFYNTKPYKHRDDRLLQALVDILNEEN

[3] = target: T3, recombinant mouse furin (Mus musculus, UniProt P23188); assay: Furin enzyme assay, hydrolysis of pERTKR-MCA at pH 7.0; type: biochemical
T3 construct: truncated N-terminally to the transmembrane domain at His^711 using PCR; myc (C, cleaved yes); hexa-His (C, cleaved yes); made in house; host or cells: DG44 CHO cells, conditioned medium
Description: Recombinant convertase preparation. The mouse furin clone was a kind gift from K. Nakayama (Fukuoka University School of Medicine, Fukuoka, Japan). The mouse furin cDNA was truncated N-terminally to the transmembrane domain at His^711 using PCR. This PCR product was then subcloned into pcDNA3.1 (−) myc-His (Invitrogen) at the Nhe1 and Xba1 restriction sites. Dihydrofolate-reductase-negative DG44 Chinese Hamster Ovary (CHO) cells (L. Chasin, Columbia University, New York, N.Y.) were transfected using Lipofectin (Life Technologies), and colonies were selected at 37° C. in 5% CO2 in α-MEM (lacking nucleosides) containing 10% well-dialyzed fetal bovine serum (Life Technologies). Conditioned media from colonies were screened using an enzyme assay (see below), and a high-expressing clone was selected. Overexpression of furin was achieved by increasing the methotrexate concentration from 5 nM to 50 μM in five- to ten-fold steps as described in I. Lindberg et al., Methods Neurosci., vol. 23, pp. 94-108 (1995). The amplified lines were tested for increased furin expression by enzyme assay. Once the 50 μM methotrexate level had been reached, cells were split at ratios of 1:6 twice a week. 100 mL of conditioned media (OptiMEM, Life Technologies) containing 100 μg/mL aprotinin (Miles Laboratories, Kankakee, Ill.) was collected from confluent roller bottles every 24 h. The medium was then centrifuged at low speed to remove cells, and the supernatant was stored at −80° C. until use.
Purification of furin: Conditioned medium was thawed, pooled, and diluted 1:3.5 with buffer A (20 mM HEPES, 0.1% Brij 35, 5 mM CaCl2, pH 7.4), and pumped at 40 mL/min through a Sartorius D100 anion exchange membrane. The membrane was washed with 40 mL of buffer A, followed by 40 mL of buffer A containing 50 mM NaCl, and finally by 40 mL of buffer A containing 200 mM NaCl. The fraction eluting with 200 mM NaCl was diluted 1:4 with buffer A and applied to a 1 mL Pharmacia Mono Q HR5/5 anion exchange column at a flow rate of 1 mL/min. Following a 10 mL wash with buffer A, furin was eluted by a linear increase of 0 to 500 mM NaCl in buffer A over 30 mL; and 2 mL fractions were collected. Fractions containing peak activity were pooled, and 200 μL aliquots were subjected to gel permeation chromatography using a Pharmacia Superose 12 column at a flow rate of 0.5 mL/min of buffer A containing 200 mM NaCl. Fractions were assayed for activity as described below; protein content was determined using the Bradford method. All purification steps were performed at 4° C.
as §2

[4] = target: T4, PACE4 (Rattus norvegicus, UniProt Q63415); assay: PACE4 enzyme assay, hydrolysis of pERTKR-MCA; type: biochemical
T4 construct: made in house; host or cells: stably transfected hEK-293 cells (gift of R. E. Mains), conditioned medium
T4 sequence (Q63415 133-937): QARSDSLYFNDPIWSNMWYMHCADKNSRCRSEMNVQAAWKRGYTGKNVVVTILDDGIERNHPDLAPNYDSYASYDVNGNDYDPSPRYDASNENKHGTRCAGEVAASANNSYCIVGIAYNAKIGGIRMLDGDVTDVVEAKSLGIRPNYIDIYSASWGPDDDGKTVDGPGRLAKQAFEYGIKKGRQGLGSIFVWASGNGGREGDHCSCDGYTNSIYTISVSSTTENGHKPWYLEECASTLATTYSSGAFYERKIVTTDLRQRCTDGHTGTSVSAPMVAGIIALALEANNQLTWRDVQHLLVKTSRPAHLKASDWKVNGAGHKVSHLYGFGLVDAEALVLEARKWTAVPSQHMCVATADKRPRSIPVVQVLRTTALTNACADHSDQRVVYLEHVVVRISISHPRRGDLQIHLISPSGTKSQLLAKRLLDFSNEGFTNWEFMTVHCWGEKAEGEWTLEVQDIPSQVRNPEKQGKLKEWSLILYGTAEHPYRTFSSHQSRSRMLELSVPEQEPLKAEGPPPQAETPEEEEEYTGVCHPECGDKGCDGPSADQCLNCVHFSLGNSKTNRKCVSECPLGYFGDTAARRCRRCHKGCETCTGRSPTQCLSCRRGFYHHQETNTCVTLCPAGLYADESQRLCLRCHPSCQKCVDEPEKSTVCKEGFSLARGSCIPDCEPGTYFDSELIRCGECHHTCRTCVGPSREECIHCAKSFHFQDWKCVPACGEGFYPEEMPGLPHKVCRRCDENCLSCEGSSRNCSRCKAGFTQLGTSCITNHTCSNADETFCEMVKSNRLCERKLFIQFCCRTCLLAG
Procedure: The proprotein convertase PACE4 was partially purified from an overnight-conditioned medium of stably transfected hEK-293 human embryonic kidney cells (a generous gift of R. E. Mains, Johns Hopkins University School of Medicine, Baltimore, Md.). Briefly, 100 mL of conditioned medium (OptiMEM containing 100 μg/mL aprotinin) was loaded onto an Econo-Pac Q (Bio-Rad) column at 4 mL/min, washed with 10 mL of buffer A, and then eluted with a linear gradient of buffer A containing 500 mM NaCl over 50 mL. The active fractions were then diluted 1:4 with buffer A prior to loading onto a Mono Q column (Pharmacia) at 1 mL/min. The PACE4 was eluted with a linear gradient of buffer A containing 500 mM NaCl over 10 mL. The resulting active fractions were then pooled and stored at −80° C. until use.
as §2

[5] = target: T5, PC1 (Mus musculus, UniProt P63239); assay: biochemical; type: biochemical
T5 construct: made in house
T5 sequence (P63239 111-753): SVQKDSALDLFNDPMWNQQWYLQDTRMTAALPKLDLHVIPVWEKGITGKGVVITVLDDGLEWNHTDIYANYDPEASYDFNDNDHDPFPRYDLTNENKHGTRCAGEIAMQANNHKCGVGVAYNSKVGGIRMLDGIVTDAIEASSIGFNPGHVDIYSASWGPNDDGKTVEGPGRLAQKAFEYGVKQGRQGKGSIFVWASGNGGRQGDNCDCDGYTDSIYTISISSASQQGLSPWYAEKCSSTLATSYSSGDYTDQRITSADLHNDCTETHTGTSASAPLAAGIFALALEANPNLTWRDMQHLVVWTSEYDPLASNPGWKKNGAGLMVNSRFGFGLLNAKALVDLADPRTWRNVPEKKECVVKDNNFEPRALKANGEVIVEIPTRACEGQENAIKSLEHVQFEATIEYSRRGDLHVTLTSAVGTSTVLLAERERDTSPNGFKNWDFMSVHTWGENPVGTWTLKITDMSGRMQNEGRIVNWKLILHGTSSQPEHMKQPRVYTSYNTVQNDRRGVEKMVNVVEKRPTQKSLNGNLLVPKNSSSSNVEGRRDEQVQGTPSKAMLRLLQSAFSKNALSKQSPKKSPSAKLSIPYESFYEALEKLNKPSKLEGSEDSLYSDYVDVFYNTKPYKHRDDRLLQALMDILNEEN
Procedure: as §1, §2

[6] = target: furin (Homo sapiens, UniProt P09958); settings: literature, cited from earlier work
Chain of furin (P09958 108-794): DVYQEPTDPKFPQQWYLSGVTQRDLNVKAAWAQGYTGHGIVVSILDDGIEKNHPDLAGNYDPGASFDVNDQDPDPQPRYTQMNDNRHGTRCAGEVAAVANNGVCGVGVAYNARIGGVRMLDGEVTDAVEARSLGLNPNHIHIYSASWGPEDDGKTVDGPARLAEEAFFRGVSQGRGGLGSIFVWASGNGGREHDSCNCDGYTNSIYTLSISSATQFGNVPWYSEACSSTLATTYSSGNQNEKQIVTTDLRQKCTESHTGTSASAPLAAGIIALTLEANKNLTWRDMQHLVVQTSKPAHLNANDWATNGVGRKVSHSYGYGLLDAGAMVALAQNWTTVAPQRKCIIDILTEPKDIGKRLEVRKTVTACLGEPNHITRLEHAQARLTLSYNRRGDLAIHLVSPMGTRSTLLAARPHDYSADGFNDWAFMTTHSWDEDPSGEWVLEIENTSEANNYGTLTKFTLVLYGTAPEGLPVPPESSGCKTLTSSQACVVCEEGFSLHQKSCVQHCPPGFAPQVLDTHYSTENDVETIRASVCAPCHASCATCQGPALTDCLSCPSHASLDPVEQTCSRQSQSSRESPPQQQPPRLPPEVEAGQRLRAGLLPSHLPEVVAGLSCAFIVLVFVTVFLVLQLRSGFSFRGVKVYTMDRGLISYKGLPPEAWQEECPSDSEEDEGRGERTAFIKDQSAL

T3 sequence (P23188 108-714 limits assumed): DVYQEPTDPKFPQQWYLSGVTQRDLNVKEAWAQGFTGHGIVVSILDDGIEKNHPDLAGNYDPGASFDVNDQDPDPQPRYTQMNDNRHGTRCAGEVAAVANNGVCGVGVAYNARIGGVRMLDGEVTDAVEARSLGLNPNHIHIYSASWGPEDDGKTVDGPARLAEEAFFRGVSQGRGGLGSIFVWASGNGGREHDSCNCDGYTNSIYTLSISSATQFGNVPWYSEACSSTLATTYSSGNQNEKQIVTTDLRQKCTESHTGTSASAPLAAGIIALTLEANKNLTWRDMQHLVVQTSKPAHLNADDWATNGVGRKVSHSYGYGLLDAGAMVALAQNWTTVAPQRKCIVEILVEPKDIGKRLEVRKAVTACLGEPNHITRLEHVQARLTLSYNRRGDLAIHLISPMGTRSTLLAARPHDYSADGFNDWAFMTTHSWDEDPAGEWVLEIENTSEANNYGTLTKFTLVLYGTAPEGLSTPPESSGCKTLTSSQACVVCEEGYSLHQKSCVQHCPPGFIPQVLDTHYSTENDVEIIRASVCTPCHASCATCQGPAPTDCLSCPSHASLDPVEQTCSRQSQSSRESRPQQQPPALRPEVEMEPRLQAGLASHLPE

For CC(=O)N[C@@H](CC(C)C)C(=O)N[C@@H](CC(C)C)C(=O)N[C@@H](CCCNC(=N)N)C(=O)N[C@H](C(=O)N[C@@H](CCCCN)C(=O)N[C@@H](CCCNC(=N)N)C(N)=O)C(C)C [Ac-LLRVKR-NH2], the Ki [1] is given as 1000 ± 80 nM, the “Ki / inhibition of PC1, in words” value [2] is given as “nanomolar inhibitor” and the Ki [3] is given as 3400 ± 100 nM.

With N=C(N)NCCC[C@H](NC(=O)[C@H](CCCNC(=N)N)NC(=O)[C@H](CCCNC(=N)N)NC(=O)[C@@H](N)CCCNC(=N)N)C(=O)O [Tetra-L-arginine] (H-RRRR-OH) the Ki [4] was greater than 200000 nM, the “inhibition of PACE4” value ([4]; mM concentrations) was “not found to inhibit even at mM concentrations” and the Ki [5] was greater than 200000 nM. For the same compound, the “inhibition of PC1” value ([5]; μM concentrations) was “not inhibited”.

For “Ac-YEKERSKR-CH2Cl (SMILES CC(=O)N[C@@H](Cc1ccc(O)cc1)C(=O)N[C@@H](CCC(=O)O)C(=O)N[C@@H](CCCCN)C(=O)N[C@@H](CCC(=O)O)C(=O)N[C@@H](CCCNC(=N)N)C(=O)N[C@@H](CO)C(=O)N[C@@H](CCCCN)C(=O)N[C@@H](CCCNC(=N)N)C(=O)CCl) [reference compound]”, the “Ki / inhibition of PC1, in words” value [2] is listed as “low nM” and the “Ki against furin, in words” value [6] is listed as “low nM”.

Compound H-RRRRR-OH [Penta-L-arginine] has a Ki [4] of 980 ± 120 nM and a Ki [5] of 14000 ± 6100 nM.

For decanoyl-RVKR-CH2-AVG-NH2, the Ki ([6]; read-out: Ki against furin) is given as 3.4 nM.

In the case of “α1-PDX: α1-antitrypsin variant with reactive site loop bioengineered to contain a minimal furin consensus sequence [reference compound]”, the inhibition of furin ([3]; nanomolar α1-PDX concentrations, validation of enzyme preparation) is listed as “strongly inhibited” and the inhibition of furin [6] is listed as “sub-nanomolar range”.
